From ChEMBL document CHEMBL2034892, “The relevance of higher plants in lead compound discovery programs” (J Nat Prod, 2011)
pEC50, pIC50: −log10 of the molar value. In brackets after ≈: the same amount, converted by molar mass. Values belong to the molecule of their own block, whether it stands above or below them.

Columns and labels:
[1] = target: T1, Taste receptor type 2 member 31 (Homo sapiens, UniProt P59538); assay: Inhibition of human TAS2R31 receptor expressed in HEK293T cells overexpressing chimeric G-protein alpha-subunit; format: cell-based, HEK-293T
T1 sequence (P59538 whole entry): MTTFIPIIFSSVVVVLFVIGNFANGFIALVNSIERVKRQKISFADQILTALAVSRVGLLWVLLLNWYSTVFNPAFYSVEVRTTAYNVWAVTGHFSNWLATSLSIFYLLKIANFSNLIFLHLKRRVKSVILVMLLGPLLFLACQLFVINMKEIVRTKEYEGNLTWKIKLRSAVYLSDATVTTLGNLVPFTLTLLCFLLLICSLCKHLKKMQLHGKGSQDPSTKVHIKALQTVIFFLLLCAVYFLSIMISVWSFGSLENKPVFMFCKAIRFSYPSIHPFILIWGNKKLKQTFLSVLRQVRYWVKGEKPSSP

HT-29 = assay: Cytotoxicity against human HT-29 cells; format: functional; settings: read-out: ED50 (the source's name)
[2] = Oral bioavailability in C57BL/6 mouse; format: ADME, organism-based; settings: in vivo
P388 [3] = assay: Antitumor activity against mouse P388 cells xenografted in mouse assessed as increase in life span at 2.5 mg/kg, ip dosed daily for 5 days; format: functional; settings: route intraperitoneal
P388 [4] = assay: Antitumor activity against mouse P388 cells xenografted in mouse assessed as increase in life span at 2 mg/kg, iv dosed twice daily for 5 days
[5] = Systemic availability in ip dosed C57BL/6 mouse; format: ADME, organism-based; settings: in vivo
[6] = Inhibition of proteasome; format: subcellular
KB = assay: Cytotoxicity against human KB cells; format: functional, cell-based

Structure (SMILES): CC(C)=CCc1c2c(c(O)c3c1O[C@]14C(=C[C@@H]5C[C@H]1C(C)(C)O[C@@]4(C/C=C(/C)C(=O)O)C5=O)C3=O)C=CC(C)(C)O2
pEC50 (HT-29): 6.44

Structure (SMILES): COC(=O)[C@H]1[C@@H](O)[C@@]2(O)c3c(OC)cc(O[C@@H]4O[C@@H]([C@H](O)CO)CO[C@H]4OC)cc3O[C@@]2(c2ccc(OC)cc2)[C@@H]1c1ccccc1 [SILVESTROL]
bioavailability [2]: 1.7% | T/C (P388 [3]): 150% | T/C (P388 [4]): 129% | bioavailability [5]: 100%

Structure (SMILES): Oc1ccc([C@H]2c3c(O)cc4c(c3[C@@H]3c5c(O)cc6c(c5[C@H]2[C@@H]3c2ccc(O)cc2)[C@H](c2cc(O)cc(O)c2)[C@@H](c2ccc(O)cc2)O6)[C@@H](c2cc(O)cc(O)c2)[C@H](c2ccc(O)cc2)O4)cc1 [VATDIOSPYROIDOL]
EC50 (KB): 1 µg/mL (≈ 1.1 µM)

Structure (SMILES): COc1cc(O)c2c(c1)O[C@H](c1ccc(O)cc1)CC2=O [SAKURANETIN]
pIC50 [1]: 5.44

Other lines, results leading:

pIC50 [1]: 5.60
Structure (SMILES): COc1cc2c(c(O)c1OC)C(=O)C[C@@H](c1ccc(O)cc1)O2

pIC50 [1]: 4.95
Structure (SMILES): COc1cc(-c2cc(=O)c3c(O)c(OC)c(O)cc3o2)ccc1O [JACEOSIDINE]

pIC50 [6]: 5.89
Structure (SMILES): O=C1c2c(O)cc(O)cc2O[C@H](c2ccc(O)cc2)[C@H]1c1c(O)cc(O)c2c(=O)cc(-c3ccc(O)c(O)c3)oc12 [MORELLOFLAVONE]

pIC50 [1]: 5.70
Structure (SMILES): COc1cc([C@@H]2CC(=O)c3c(O)cc(O)cc3O2)ccc1OC(=O)C(C)C
